Entries after “also recorded” stand apart in the source; their conditions may differ. Read-outs that look alike come from different tables or passages of the source.
Assays:
S1PR3 = S1PR3 (Homo sapiens, UniProt Q99500); assay: Agonistic activity test on S1P receptors, FLIPR; type: cell-based
Procedure: Instrument: FLIPR™ TETRA (Molecular Device)
Sample processing: Before the experiment, the working solution with the corresponding concentration was prepared by diluting with GPCR dilution buffer.
After 18-20 hours, the cell culture plat was taken out and added with dye working solution, and then the plate was placed in a 37° C./5% CO2 incubator for 1 hour, and finally equilibrated at room temperature for 15 minutes. Positive agonist working solution was added, and RFU values were detected and recorded. […] The positive agonist working fluid was added to the cell culture plate at the 21st second. […] The antagonistic mode detection program, the overall detection time of the instrument was 120 seconds, and positive antagonist working solution was added to the cell culture plate at the 21st second.
Data processing: Raw data were obtained via ScreenWorks (version 3.1) and saved as *FMD files on the Kingsray computer network system. Data were collected and analyzed using Excel and GraphPad Prism 6 software programs. For each well, the average fluorescence intensity value from 1 to 20 seconds was used as the baseline, and the maximum fluorescence intensity value from 21 to 120 seconds minus the minimum fluorescence intensity value from 21 to 120 seconds was the relative fluorescence intensity value (ARFU), from which the percentage activation or inhibition can be calculated based on the following equation.
% Activation Rate=(ΔRFUCompound-ΔRFUBackground)/(ΔRFUAgonist control-ΔRFUBackground)×100%
The data was analyzed using GraphPad Prism 6 with a four-parameter equation to calculate the EC50 and IC50 values. The four-parameter equation was as follows: y=Bottom+(Top-Bottom)/(1+10^((LogEC50/IC50-X)*HillSlope)), wherein X is the Log value of the concentration and Y was the inhibition rate.

S1P4 = target: T1, S1P4 (Homo sapiens, UniProt O95977); assay: Subtype selectivity study, method of Experimental Example 1; type: cell-based
T1 sequence (O95977 1-384): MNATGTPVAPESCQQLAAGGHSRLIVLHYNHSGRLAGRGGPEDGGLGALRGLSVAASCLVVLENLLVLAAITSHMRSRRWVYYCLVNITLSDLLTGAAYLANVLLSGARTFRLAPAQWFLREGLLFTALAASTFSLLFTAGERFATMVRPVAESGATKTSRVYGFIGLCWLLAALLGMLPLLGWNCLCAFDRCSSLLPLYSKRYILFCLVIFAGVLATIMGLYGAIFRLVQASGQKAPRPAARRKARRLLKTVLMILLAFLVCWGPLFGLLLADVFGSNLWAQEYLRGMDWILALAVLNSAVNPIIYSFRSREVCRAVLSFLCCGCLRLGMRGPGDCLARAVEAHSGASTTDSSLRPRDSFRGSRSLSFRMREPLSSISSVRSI
Procedure: (§1) Experimental method: CHO-K1/Ga15/EDG1 cells stably expressing EDG1 receptor were cultured in a 10 cm culture dish in a 37° C./5% CO2incubator, and digested when the confluence rate reached 80%-85%. The cells in collected cell suspension were inoculated into 384 microtiter plates at appropriate density, and then placed in a 37° C./5% CO2 incubator and continue to incubate for at least 18 hours before using for experiments. After 18-20 hours, the cell culture plat was taken out and added with dye working solution, and then the plate was placed in a 37° C./5% CO2 incubator for 1 hour, and finally equilibrated at room temperature for 15 minutes. Positive agonist working solution was added, and RFU values were detected and recorded. The 384 microplates, cell plates and tip box with positive agonist working solution were placed into FLIPRTM TETRA and the agonist mode assay program was run with an overall assay time of 120 seconds. The positive agonist working fluid was added to the cell culture plate at the 21st second. 384 microplate, cell plate and gun head box containing the positive antagonist working fluid were put into the FLIPRTM TETRA. The antagonistic mode detection program, the overall detection time of the instrument was 120 seconds, and positive antagonist working solution was added to the cell culture plate at the 21st second. Data processing: Raw data were obtained via ScreenWorks (version 3.1) and saved as *FMD files on the […] computer network system. Data were collected and analyzed using Excel and GraphPad Prism 6 software programs. […] The four-parameter equation was as follows: y=Bottom+(Top-Bottom)/(1+10^((LogEC50/IC50-X)*HillSlope)), wherein X is the Log value of the concentration and Y was the inhibition rate. The S1P receptor selectivity was tested for different subtypes using the method described in Experimental Example 1.

S1P5 = S1P5 (Homo sapiens, UniProt Q9H228); assay: as above; type: cell-based
S1P5, sequence (Q9H228 whole entry, species assumed): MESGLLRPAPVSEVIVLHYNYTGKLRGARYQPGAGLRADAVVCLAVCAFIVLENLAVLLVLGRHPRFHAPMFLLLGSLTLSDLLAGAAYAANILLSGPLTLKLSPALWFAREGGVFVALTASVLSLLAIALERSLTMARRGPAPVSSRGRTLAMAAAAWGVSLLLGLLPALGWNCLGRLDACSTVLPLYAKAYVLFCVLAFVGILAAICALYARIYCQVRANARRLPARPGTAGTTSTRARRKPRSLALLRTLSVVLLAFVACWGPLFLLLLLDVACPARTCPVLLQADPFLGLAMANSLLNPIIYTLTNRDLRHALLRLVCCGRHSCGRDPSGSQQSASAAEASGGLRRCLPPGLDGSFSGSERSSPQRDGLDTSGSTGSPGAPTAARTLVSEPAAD
Procedure: as §1

S1P receptor = assay: Subtype selectivity study of compound A1, overall statement; type: cell-based; conditions: especially for S1P1 and S1P5 subtypes
Procedure: The S1P receptor selectivity was tested for different subtypes using the method described in Experimental Example 1.

[1] = system: CCI4-induced liver fibrosis model; assay: Pharmacological activity test in carbon tetrachloride induced liver fibrosis model; type: in vivo, C57BL/6 mice
Procedure: Male C57BL/6 mice were injected intraperitoneally with 5% CCI4(dissolved in corn oil) at 5 mL/kg twice a week to induce liver fibrosis model. Three weeks after modeling, mice were randomly divided into five groups: model control group (Model, n=12), positive compound FTY720 group (2 mg/kg, n=9), positive compound OCA group (30 mg/kg, n=10), low dose group (3 mg/kg), high dose group (10 mg/kg), FTY720 was administered by intraperitoneal injection and the rest of the groups were administered by oral gavage, once a day. After 5 weeks of administration, the mice were sacrificed by dislocation after blood was taken via the posterior ophthalmic plexus, liver and spleen were taken and weighed. Part of the liver was fixed in 4% paraformaldehyde, and part of the liver and serum were stored at −80° C. 10 mice from the same litter were injected intraperitoneally with the same dose of corn oil throughout the experiment as a systemic control.

[2] = system: MCD-HFD induced NASH model; assay: Pharmacological activity test in MCD-HFD induced NASH model; type: in vivo, C57BL/6 mice
Procedure: Male C57BL/6 mice were fed with MCD-HFD diet to induce the NASH model, and 4 weeks after modeling, the mice were randomly divided into […]: normal diet control group (Control, n=9), model control group (Model, n=10), positive compound BAF312 group (0.3 mg/kg, n=10), low dose group (0.3 mg/kg, n=10), medium dose group (3 mg/kg, n=10), and high dose group (10 mg/kg, n=10), administered by gavage in a volume of 5 mL/kg once a day. The animals were monitored for food intake and body weight during administration; 4 weeks after administration, the mice were sacrificed by dislocation after blood was taken via the posterior ophthalmic plexus, livers and spleens were weighed, part the liver was fixed in 4% paraformaldehyde, and all tissues and serum were stored at −80° C.

[3] = high-dose group (10 mg/kg), gavage once a day, 4 weeks

S1PR3, sequence (Q99500 whole entry, species assumed): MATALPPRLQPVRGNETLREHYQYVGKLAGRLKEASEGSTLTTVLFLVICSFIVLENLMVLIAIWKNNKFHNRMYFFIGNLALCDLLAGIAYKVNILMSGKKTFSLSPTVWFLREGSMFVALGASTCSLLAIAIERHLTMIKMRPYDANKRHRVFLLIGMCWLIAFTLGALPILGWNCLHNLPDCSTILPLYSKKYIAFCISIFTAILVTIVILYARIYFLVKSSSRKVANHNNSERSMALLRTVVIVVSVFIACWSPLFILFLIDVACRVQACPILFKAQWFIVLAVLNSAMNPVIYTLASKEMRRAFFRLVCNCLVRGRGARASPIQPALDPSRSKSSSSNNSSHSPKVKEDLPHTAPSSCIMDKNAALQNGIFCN

CC(C)Oc1ccc(-c2nc(-c3ccc(CN4CC(C(=O)O)C4)c4ccccc34)no2)cc1C#N.Cl [Compound A1, 1-((4-(5-(3-cyano-4-isopropoxyphenyl)-1,2,4-oxadiazol-3-yl)naphthalen-1-yl)methyl) azetidine-3-carboxylic acid hydrochloric acid]
EC50 (S1PR3; FLIPR agonist mode, read-out: S1PR3 EC50): > 10 µM
EC50 (S1PR3; subtype selectivity study, read-out: S1P3 EC50): > 10 µM
EC50 (S1P4): > 10 µM
EC50 (S1P5): 0.12 µM
selectivity for different S1P receptor subtypes (S1P receptor): good selectivity
hydroxyproline content in the liver ([1]; high dose (10 mg/kg), 10 mg/kg): significantly alleviated; also recorded: alleviating
mRNA expression of liver fibrosis-related genes (Tgfb, Col1a1) ([1]; high dose (10 mg/kg), 10 mg/kg): significantly downregulated; also recorded: downregulates
liver and spleen organ weights ([1]; oral gavage once a day, 5 weeks): without affecting
ALT levels in serum ([1]; oral gavage once a day, 5 weeks, 3 and 10 mg/kg groups): significantly reduced
collagen deposition in the liver ([1]; pathological section analysis): significantly reduced
hepatic lipid accumulation as well as inflammatory infiltration ([2]; FIG. 10 legend: at high/medium/low doses): alleviated
hepatic lipid accumulation and inflammatory infiltration ([2]; H&E-stained liver sections, high-dose (10 mg/kg)): effective in alleviating
body weight ([2]; gavage once a day, 4 weeks): without affecting
TG accumulation in the liver ([2]; high-dose group (10 mg/kg)): significantly alleviating
serum ALT levels [2, 3]: significantly reduced
serum AST levels [2, 3]: significantly reduced
expression levels of fibrosis-related genes (Asma, Tgfb, Col1a1) ([2]; high/medium-dose (10/3 mg/kg)): significantly downregulated; also recorded: downregulates
hydroxyproline levels in the liver ([2]; high/medium-dose (10/3 mg/kg), to different degrees): effective in alleviating; also recorded: alleviated
mRNA expression of liver inflammation-related genes (Tnfa, Il1b, Nlrp3, Ccl2) ([2]; high/medium/low doses (10/3/0.3 mg/kg), to different degrees): significantly downregulated

Source: patent publication US20240208954A1, “OXADIAZOLE COMPOUND, PREPARATION METHOD THEREFOR, PHARMACEUTICAL COMPOSITION AND USE THEREOF” (SHANGHAI INSTITUTE OF MATERIA MEDICA, CHINESE ACADEMY OF …, priority 2020, published 2024)
